Assay results taken from US12391662B2, “Lipid compounds and lipid nanoparticle compositions” (RINUAGENE BIOTECHNOLOGY CO., LTD., priority 2022, dated 2025).

Columns and labels:
[1] = LNP mRNA encapsulation efficiency (Quant-iT RiboGreen RNA Assay Kit); assay type: physicochemical; conditions: LNP of Compound:cholesterol:DSPC:DMG-PEG2000=50:38.5:10:1.5 encapsulating mRNA
Experimental: The mRNA stock solution was dispersed in 20 mM acetic acid solution (pH 5.0) to give a final concentration of 200 μg/mL (aqueous phase). […] The mRNA was mixed with the lipid mixture by T-mixing and controlling the flow rate of aqueous phase and oil phase (3:1) with a total flow rate of 12-50 ml/min, to obtain LNP-encapsulated mRNA. The encapsulated LNP was diluted with buffer (pH 5.0-5.5) and then concentrated by ultrafiltration with replacement of diluent, and finally LNP was concentrated to 200 μg/mL˜600 μg/mL of mRNA, while the pH of LNP was adjusted to about 7-8. Finally, Quant-iT™ RiboGreen™ RNA Assay Kit (Invirtogen by Thermo Fisher Scientific, cat #R11490), and 10% Triton X-100 solution or 10% OTG solution as an emulsion breaker were used to detect the total and free content of mRNA in the LNP, and the encapsulation efficiency of LNP was calculated.

[2] = LNP particle size and PDI (Malvern ZetaSizer); assay type: physicochemical; conditions: LNP of Compound:cholesterol:DSPC:DMG-PEG2000=50:38.5:10:1.5 encapsulating mRNA
Experimental: The mRNA stock solution was dispersed in 20 mM acetic acid solution (pH 5.0) to give a final concentration of 200 μg/mL (aqueous phase). […] The mRNA was mixed with the lipid mixture by T-mixing and controlling the flow rate of aqueous phase and oil phase (3:1) with a total flow rate of 12-50 ml/min, to obtain LNP-encapsulated mRNA. The encapsulated LNP was diluted with buffer (pH 5.0-5.5) and then concentrated by ultrafiltration with replacement of diluent, and finally LNP was concentrated to 200 μg/mL˜600 μg/mL of mRNA, while the pH of LNP was adjusted to about 7-8. […]

SD rats = experiment: Toxicity assay: clinical markers 24 hours after intravenous LNP administration; assay type: in vivo; conditions: LNP intravenous 3 mg/kg, 24 hours after administration
Experimental: The nanoparticle samples containing different lipids were administered to rats (SD rats, Zhejiang Vital River Laboratory Animal Technology Co., Ltd, 3 males and 3 females per group, body weight: 220-300 g for female, 260-340 g for male) by intravenous injection at a dose of 3 mg/kg. The expression of various clinical markers was assessed at 24 hours after administration and compared with the expression induced by SM102 LNP formulation (i.e., LNP formulation made from the known SM102 lipid, which was prepared according to the method of Test Example 1 in the same ratio) as well as by phosphate buffered saline (PBS).

rats = experiment: Toxicity assay: serum ALT/AST and deaths after single intravenous dose of Luciferase mRNA LNPs; assay type: in vivo; conditions: LNP intravenous single dose 3 mg/kg; for animals that died during the test: five animals per group
Experimental: Animals were grouped according to body weight (five animals per group) one day before administration (Zhejiang Vital River Laboratory Animal Technology Co. Ltd, male, body weight: 170-220 g). […] Luciferase mRNA was encapsulated in said lipid nanoparticle compositions.
The administration volume is 10 mL/kg, and the administration dosage is 3 mg/kg.

balb/c mice = experiment: Extrahepatic delivery of Luciferase mRNA LNPs after intravenous injection, organ fluorescence (liver, spleen, stomach, intestine tract); assay type: in vivo; conditions: 20 μg LNP intravenous, 24 hours, FIGS. 2A-2D, compared with MC3 and Compound 20A groups
Experimental: Five balb/c mice (Zhejiang Vital River Laboratory Animal Technology Co., Ltd, female, 6-8 weeks old, 18-20 g) were taken as a group, labeled with a black marker pen on the tail with numbers 1 # to 5 #; five mice in each group were sequentially injected intravenously with 20 μg of the lipid nanoparticle composition. The lipid nanoparticle compositions of the present invention were prepared according to Test Example 1, in which Luciferase mRNA was encapsulated. A phosphate buffered saline (PBS) group was set up in parallel as a blank control, and an MC3 group was set up as a reference (obtained by preparation according to the method and ratio of Test Example 1).
Fluorescence assay was performed for each group of mice at 24 hours after intravenous administration of the samples ([…] YEASEN,LOT:D5330150, IP, 150 mg/kg was administered 10 minutes in advance for each group), the mice were anesthetized, and then put into a small animal living optical imaging system-IVIS® Lumina LT Series III according to the orders from tail mark 1 # to 5 #. The whole-body fluorescence was detected to evaluate the delivery and the expression of the prepared Luciferase mRNA.
At the end of the test, the mice were sacrificed by cervical dislocation, and the liver, spleen, stomach, and intestine tract were harvested, and the organs were discharged according to the corresponding positions from 1 # to 5 # for fluorescence detection of the organs.

Compound | Encapsulation Efficiency [1] [%] | PDI [2] | Particle Size [2] [nm] | Alanine transaminase (SD rats) [U/L] | Aspartate transaminase (SD rats) [U/L] | aspartate aminotransferase and alanine aminotransferase values compared with MC3 and SM102 groups (rats; serum 24 hours after administration, FIGS. 3A-3B) | extrahepatic delivery effect (balb/c mice) | animals that died during the test (rats)
CCCCCCCCCCCOC(=O)CCCCCC1(CCCCCCCC(=O)OC(CCCCCCCC)CCCCCCCC)OCC(CCN(C)CCC)O1 (stereo not shown) [Compound 15] | 97.2 | 0.10 | 61.73 |  |  |  |  | 
CCCCCCCCCCC(=O)OCCCCCCC1(CCCCCCCC(=O)OC(CCCCCCCC)CCCCCCCC)OC[C@@H](CCN(C)C)O1 (stereo partly shown) [Compound 5B] | 98.4 | 0.04848 | 67.95 |  |  |  |  | 
CCCCCCCCCCCOC(=O)CCCCCC1(CCCCCCCC(=O)OC(CCCCCCCC)CCCCCCCC)OCC(CCN(CC)CC)O1 (stereo not shown) [Compound 11] | 97.5 | 0.06 | 80.34 |  |  |  |  | 
CCCCCCCCCCC(=O)OCCCCCCC1(CCCCCCCC(=O)OC(CCCCCCCC)CCCCCCCC)OCC(CCN(C)C)O1 (stereo not shown) [Compound 5] | 94.92 | 0.04107 | 89.54 | 65.72 | 251.10 |  |  | 
CCCCCCCCCCCOC(=O)CCCCCC1(CCCCCCCC(=O)OC(CCCCCCCC)CCCCCCCC)OCC(CCCN(C)C)O1 (stereo not shown) [Compound 13] | 89.3 | 0.16 | 98.15 |  |  | lower than those of the groups of the ionizable lipids MC3 and SM102 | significant extrahepatic delivery effects | 
CCCCCCCCCCCOC(=O)CCCCCC1(CCCCCCCC(=O)OC(CCCCCCCC)CCCCCCCC)OCC(CN(C)C)CO1 (stereo not shown) [Compound 1] | 97.22 | 0.1125 | 66.97 |  |  |  |  | 
CCCCCCCCCCC(=O)OCCCCCCC1(CCCCCCCC(=O)OC(CCCCCCCC)CCCCCCCC)OCC(CN(C)C)O1 (stereo not shown) [Compound 6] | 95.50 | 0.1676 | 69.85 |  |  |  |  | 
CCCCC/C=C\C/C=C\CCCCCCCCC(CCCCCCCC/C=C\C/C=C\CCCCC)OC(=O)CCCN(C)C [MC3, reference compound] | 96.7 | 0.15 | 72.70 |  |  |  |  | four rats in the MC3 group died
CCCCCCCCCCC(=O)OCCCCCCC1(CCCCCCCCOC(=O)C(CCCCCCCC)CCCCCCCC)OCC(CCN(C)C)O1 (stereo not shown) [Compound 8] | 90.99 | 0.09334 | 99.68 |  |  |  |  | 
CCCCCCCCCCCNC(=O)CCCCCC1(CCCCCCCC(=O)NC(CCCCCCCC)CCCCCCCC)OCC(CCN(C)C)O1 (stereo not shown) [Compound 17] | 98.2 | 0.05 | 125.0 |  |  |  |  | 
CCCCCC(CCCCC)CCOC(=O)CCCCCCCC1(CCCCCCCC(=O)OCCC(CCCCC)CCCCC)OC[C@H](CCN(C)C)O1 [Compound 20A] | 92.5 | 0.073 | 85.64 |  |  |  |  | all five rats in Compound 20A group died
CCCCCCCCCCC(=O)OCCCCCCC1(CCCCCCCCOC(=O)C(CCCCCCCC)CCCCCCCC)OCC(CN(C)C)O1 (stereo not shown) [Compound 7] | 96.52 | 0.1537 | 92.38 |  |  |  |  | 
CCCCCCCCCCCOC(=O)CCCCCC1(CCCCCC(=O)OCCCCCCCCCCC)OCC(CCN(C)C)O1 (stereo not shown) [Compound 19] | 93.3 | 0.34 | 110.3 |  |  |  |  | 
CCCCCCCCCCCOC(=O)CCCCCC1(CCCCCCCC(=O)OC(CCCCCCCC)CCCCCCCC)OCC(CCN(C)C)O1 (stereo not shown) [Compound 2] | 92.32 | 0.03414 | 70.27 | 116.27 | 342.17 |  |  | 
CCCCCCCCCCCOC(=O)CCCCCC1(CCCCCCCC(=O)OC(CCCCCCCC)CCCCCCCC)OCC(CCN(CC)C(C)C)O1 (stereo not shown) [Compound 16] | 97.6 | 0.03 | 71.68 |  |  |  |  | 
CCCCCCCCC(CCCCCC)C(=O)OCCCCCCC1(CCCCCCOC(=O)C(CCCCCC)CCCCCCCC)OCC(CCN(C)C)O1 (stereo not shown) [Compound 21] | 96.8 | 0.3138 | 92.89 |  |  |  |  | 
CCCCCCCCCCC(=O)OCCCCCCC1(CCCCCCCCOC(=O)C(CCCCCCCC)CCCCCCCC)OCC(CN(C)C)CO1 (stereo not shown) [Compound 9] | 95.07 | 0.1368 | 71.61 |  |  |  |  | 
CCCCCCCCCCCOC(=O)CCCCCC1(CCCCCCCC(=O)OC(CCCCCCCC)CCCCCCCC)OCC(CN(C)C)O1 (stereo not shown) [Compound 3] | 95.04 | 0.1264 | 95.04 |  |  |  |  | 
CCCCCCCCC(CCCCCCCC)CC(=O)CCCCCCCC1(CCCCCCCC(=O)OC(CCCCCCCC)CCCCCCCC)OCC(CCN(C)C)O1 (stereo not shown) [Compound 18] | 96.5 | 0.10 | 69.23 |  |  |  |  | 
CCCCCCCCCCC(=O)OCCCCCCC1(CCCCCCCC(=O)OC(CCCCCCCC)CCCCCCCC)OCC(CN(C)C)CO1 (stereo not shown) [Compound 4] | 96.23 | 0.1387 | 69.03 |  |  |  |  | 
CCCCCCCCCCCOC(=O)CCCCCC1(CCCCCCCC(=O)OC(CCCCCCCC)CCCCCCCC)OCC(CCN(C)CC)O1 (stereo not shown) [Compound 10] | 96.5 | 0.07 | 78.44 |  |  |  |  | 
CCCCCCCCCCCOC(=O)CCCCCN(CCO)CCCCCCCC(=O)OC(CCCCCCCC)CCCCCCCC [SM-102, reference compound] | 97.5 | 0.07 | 74.80 | 286.51 | 486.42 |  |  | 
CCCCCCCCCCCOC(=O)CCCCCC1(CCCCCCCC(=O)OC(CCCCCCCC)CCCCCCCC)OCC(CCCCN(C)C)O1 (stereo not shown) [Compound 14] | 90.97 | 0.16 | 118.1 |  |  |  |  | 
